Data: patent US7244727B2, “Fused bicyclic nitrogen-containing heterocycles” (Japan Tobacco Inc., priority 2002, dated 2007)

Tests used:
[1] = biological target: T1, human DGAT1 (Homo sapiens, UniProt O75907); assay: DGAT Scintillation Proximity Assay (SPA) with membranes of insect cells expressing human flagtag DGAT1; type: biochemical; details: read-out: hDGAT1 IC50
T1 construct: made in house; host or cells: insect cells (sf9, sf21 or High Five) infected with baculovirus; total cell membranes
T1 sequence (O75907 1-488): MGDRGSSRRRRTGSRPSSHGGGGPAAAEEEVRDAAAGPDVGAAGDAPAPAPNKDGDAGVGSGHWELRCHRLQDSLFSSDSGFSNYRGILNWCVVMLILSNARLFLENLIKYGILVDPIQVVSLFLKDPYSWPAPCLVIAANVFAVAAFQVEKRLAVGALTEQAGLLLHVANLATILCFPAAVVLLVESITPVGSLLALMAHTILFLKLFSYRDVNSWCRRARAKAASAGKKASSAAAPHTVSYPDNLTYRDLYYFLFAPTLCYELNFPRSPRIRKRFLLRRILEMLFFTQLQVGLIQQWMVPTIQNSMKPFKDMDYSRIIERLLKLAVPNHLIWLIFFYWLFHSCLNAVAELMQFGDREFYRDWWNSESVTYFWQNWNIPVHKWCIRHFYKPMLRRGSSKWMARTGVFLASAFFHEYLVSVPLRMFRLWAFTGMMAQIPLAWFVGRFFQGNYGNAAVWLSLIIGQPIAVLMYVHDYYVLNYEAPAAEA
Outline: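 Membranes (0.2 μg/well) from insect cells expressing human flag-tagged DGAT1 incubated with 10 μM compound and 200 μM dioleoyl glycerol substrate; mercuric chloride as inhibition control. Reaction stopped with WGA SPA beads in mercuric chloride, overnight bead coupling, then scintillation proximity signal read.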

Compound | melting point | IC50 [1] [µM]
CC1(C)Oc2ncnc(N)c2N=C1c1ccc([C@H]2CC[C@H](CN3CCN(C(N)=O)CC3)CC2)cc1 [Example 2-246] | 158 to 160 °C | 0.01 to 0.1
Cc1nc(N)c2c(n1)OC(C)(C)C(c1ccc([C@H]3CC[C@H](C[S+]([O-])CC(=O)O)CC3)cc1)=N2 (some centres unmarked) [Example 2-262] | > 166 °C | 0.01 to 0.1
CC1(C)Oc2ncnc(N)c2N=C1c1ccc([C@H]2CC[C@H](CNC(=O)[C@@H]3CCCN3)CC2)cc1 [Example 2-131] | 230 to 231 °C | 0.01 to 0.1
Cc1ncc(C[C@H]2CC[C@H](c3ccc(C4=Nc5c(N)ncnc5OC4(C)C)cc3)CC2)s1 [Example 2-118] | 215 to 216 °C | 0.01 to 0.1
Cc1nc(N)c2c(n1)OC(C)(C)C(c1ccc([C@H]3CC[C@H](CS(=O)(=O)CC(=O)O)CC3)cc1)=N2 [Example 2-261] | 225 to 227 °C | 0.01 to 0.1
Nc1ncnc2c1N=C(c1cccnc1)CO2 [Example 1-17] | > 220 °C | > 0.1
Cc1nc(N)c2c(n1)OC(C)(C)C(c1ccc([C@H]3CC[C@H](CC(=O)O)CC3)c(Cl)c1)=N2 [Example 6] | > 230 °C | < 0.01
CC1(C)Oc2ncnc(N)c2N=C1c1ccc([C@H]2CC[C@H](CC(=O)N3CCNCC3)CC2)cc1.Cl.Cl [Example 2-111] | > 250 °C | 0.01 to 0.1
CCCNC(=O)N1CCN(C[C@H]2CC[C@H](c3ccc(C4=Nc5c(N)ncnc5OC4(C)C)cc3)CC2)CC1 [Example 2-245] | 180 to 182 °C | 0.01 to 0.1
Cc1nc(N)c2c(n1)OC(C)(C)C(c1ccc([C@H]3CC[C@H](Cc4noc(=O)[nH]4)CC3)c(F)c1)=N2 [Example 6-11] | > 282 °C | 0.01 to 0.1
CC1(C)Oc2ncnc(N)c2N=C1c1ccc([C@H]2CC[C@H](CCNC(=O)[C@@H]3C[C@@H](O)CN3)CC2)cc1 [Example 2-183] | 201 to 203 °C | 0.01 to 0.1
CC1(C)Oc2ncnc(N)c2N=C1c1ccc([C@H]2CC[C@H](CCN3CCC(Cc4ccccc4)CC3)CC2)cc1 [Example 2-86] | 190 to 191 °C | > 0.1
Nc1ncnc2c1N=C(c1ccc(Br)cc1)C1(CCCC1)O2 [Example 2-13] | 184 to 186 °C | > 0.1
CC1(C)Oc2ncnc(N)c2N=C1c1ccc([C@H]2CC[C@H](CC(=O)N3CCC[C@H]3CO)CC2)cc1 [Example 2-100] | 184 to 185 °C | 0.01 to 0.1
CC1(C)Oc2ncnc(N)c2NC1c1ccc([C@H]2CC[C@H](CS(N)(=O)=O)CC2)cc1 (some centres unmarked) [Example 2-221] | > 250 °C | > 0.1
Cc1nc(N)c2c(n1)OC(C)(C)C(c1ccc([C@H]3CC[C@H](CCc4nn[nH]n4)CC3)cc1)=N2 [Example 2-200] | > 250 °C | < 0.01
CC(=O)N1CCC(c2ccc(C3=Nc4c(N)ncnc4OC3(C)C)cc2)CC1 [Example 3-3] | 232 to 237 °C | > 0.1
CC1(C)Oc2ncnc(N)c2N=C1c1ccc([C@H]2CC[C@H](CCNS(C)(=O)=O)CC2)cc1 [Example 2-173] | 218 to 219 °C | 0.01 to 0.1
Cc1nc(N)c2c(n1)OC(C)(C)C(c1ccc([C@H]3CC[C@H](CNC4=NCCO4)CC3)cc1)=N2 [Example 2-162] | 216 to 250 °C | 0.01 to 0.1
Cc1nc(N)c2c(n1)OC(C)(C)C(c1ccc([C@H]3CC[C@H](CC(=O)O)CC3)c(N)c1)=N2 [Example 6-3] | 280 °C (dec.) | 0.01 to 0.1
Cc1nc(N)c2c(n1)OC(C)(C)C(c1ccc([C@H]3CC[C@H](CN4CCC(O)C4=O)CC3)cc1)=N2 (some centres unmarked) [Example 2-166] | 225 to 233 °C | 0.01 to 0.1
Nc1ncnc2c1N=C(c1ccc(C(F)(F)F)cc1)CO2 [Example 1-8] | > 220 °C | > 0.1
Cc1ccc(C2Nc3c(N)ncnc3OC2(C)C)cc1 (centres unmarked) [Example 2-20] | > 230 °C | > 0.1
CC1(C)Oc2ncnc(N)c2N=C1c1ccc([C@H]2CC[C@H](CNC(=O)OCc3ccccc3)CC2)cc1 [Example 2-61] | 159 to 162 °C | 0.01 to 0.1
CC1(C)Oc2ncnc(N)c2N=C1c1ccc([C@H]2CC[C@H](CC(O)C(F)(F)F)CC2)cc1 (some centres unmarked) [Example 2-80] | 271 to 272 °C | 0.01 to 0.1
Cc1nc(N)c2c(n1)OC(C)(C)C(c1ccc([C@H]3CC[C@H](CC(=O)Cc4nn[nH]n4)CC3)cc1)=N2 [Example 2-148] | > 250 °C | < 0.01
CC1(C)Oc2ncnc(N)c2N=C1c1ccc([C@H]2CC[C@H](CCO)CC2)cc1 [Example 2-79] | 207 to 208 °C | 0.01 to 0.1

Further lines, results first:

melting point | IC50 [1] [µM] | Compound
231 to 232 °C | 0.01 to 0.1 | CC1(C)Oc2ncnc(N)c2N=C1c1ccc([C@H]2CC[C@H](CC(=O)N3CC[C@@H](O)C3)CC2)cc1 [Example 2-103]
> 250 °C | < 0.01 | Cc1nc(N)c2c(n1)OC(C)(C)C(c1ccc([C@H]3CC[C@H](Cc4nn[nH]n4)CC3)cc1)=N2 [Example 2-137]
> 220 °C | > 0.1 | Nc1ncnc2c1N=C(c1ccc(F)cc1)CO2 [Example 1-2]
> 250 °C | 0.01 to 0.1 | Cc1nc(N)c2c(n1)OC(C)(C)C(c1ccc([C@H]3CC[C@H](CCc4nc(=O)[nH]n4C)CC3)cc1)=N2 [Example 2-198]
248 °C (dec.) | < 0.01 | CC1(C)Oc2ncnc(N)c2N=C1c1ccc([C@H]2CC[C@H](CSCC(=O)O)CC2)cc1 [Example 2-253]
229 to 232 °C | 0.01 to 0.1 | Cc1nc(N)c2c(n1)OC(C)(C)C(c1ccc([C@H]3CC[C@H](CNC(=O)CO)CC3)c(Cl)c1)=N2 [Example 6-2]
75 to 77 °C | > 0.1 | Nc1cccc2c1N=C(c1ccc(Br)cc1)CO2 [Example 1-15]
> 230 °C | 0.01 to 0.1 | Cc1nc(N)c2c(n1)OC(C)(C)C(c1ccc([C@H]3CC[C@H](Cc4nc(=O)[nH]n4C)CC3)cc1)=N2 [Example 2-169]
229 to 233 °C | 0.01 to 0.1 | CC1(C)Oc2nc(C(F)(F)F)nc(N)c2N=C1c1ccc([C@H]2CC[C@H](CNC(=O)CO)CC2)cc1 [Example 2-154]
189 to 190 °C | > 0.1 | CCOc1ccc(C2=Nc3c(N)ncnc3OC2(C)C)cc1 [Example 2-38]
243 to 248 °C | 0.01 to 0.1 | CN(CC(=O)O)C(=O)[C@H]1CC[C@H](c2ccc(C3=Nc4c(N)ncnc4OC3(C)C)cc2)CC1 [Example 2-219]
230 to 231 °C | 0.01 to 0.1 | CC1(C)Oc2ncnc(N)c2N=C1c1ccc([C@H]2CC[C@H](Cc3cnc(-c4ccccc4)[nH]3)CC2)cc1 [Example 2-123]
244 to 245 °C | > 0.1 | CC1(C)Oc2ncnc(N)c2NC1(C)c1ccc(C2CCCCC2)cc1 (centres unmarked) [Example 2-75]
> 250 °C | < 0.01 | CC(C)(NC(=O)[C@H]1CC[C@H](c2ccc(C3=Nc4c(N)ncnc4OC3(C)C)cc2)CC1)C(=O)O [Example 2-212]
208 to 210 °C | 0.01 to 0.1 | CN(C[C@H]1CC[C@H](c2ccc(C3=Nc4c(N)ncnc4OC3(C)C)cc2)CC1)C(=O)CO [Example 2-243]
> 250 °C | 0.01 to 0.1 | CC1(C)Oc2ncnc(N)c2N=C1c1ccc([C@H]2CC[C@H](CCc3cc(O)[nH]n3)CC2)cc1 [Example 2-172]
192 to 194 °C | 0.01 to 0.1 | CCN(CC)C(=O)CC[C@H]1CC[C@H](c2ccc(C3=Nc4c(N)ncnc4OC3(C)C)cc2)CC1 [Example 2-189]
> 250 °C | 0.01 to 0.1 | CC1(C)Oc2ncnc(N)c2N=C1c1ccc([C@H]2CC[C@H](C(N)=O)CC2)cc1 [Example 2-204]
226 to 227 °C | 0.01 to 0.1 | CC1(C)Oc2ncnc(N)c2N=C1c1ccc([C@H]2CC[C@H](CNS(N)(=O)=O)CC2)cc1 [Example 2-130]
219 to 221 °C | > 0.1 | Nc1ncnc2c1N=C(c1ccc(C3CCCCC3)cc1)CO2 [Example 1-25]
> 250 °C | 0.01 to 0.1 | Cc1nc(N)c2c(n1)OC(C)(C)C(c1ccc([C@H]3CC[C@H](CNC(=O)C(C)(C)O)CC3)c(Cl)c1)=N2 [Example 6-18]
> 220 °C | > 0.1 | Nc1ncnc2c1N=C(c1ccc(Cl)cc1)CO2 [Example 1-3]
> 250 °C | 0.01 to 0.1 | CC1(C)Oc2ncnc(N)c2N=C1c1ccc([C@H]2CC[C@H](CN[C@H]3CC[C@H](O)CC3)CC2)cc1 [Example 2-116]
228 to 229 °C | 0.01 to 0.1 | Cc1nc(N)c2c(n1)OC(C)(C)C(c1ccc([C@H]3CC[C@H](CNC(=O)C(C)(C)O)CC3)cc1)=N2 [Example 2-150]
> 240 °C | 0.01 to 0.1 | Cc1nc(N)c2c(n1)OC(C)(C)C(c1ccc([C@H]3CC[C@H](CCC(=O)NC(C)(C)CO)CC3)cc1)=N2 [Example 2-193]
